Source: ChEMBL document CHEMBL1150484, “Structure-based design of achiral anthranilamides as P2/P2 surrogates for symmetry-based HIV protease inhibitors: design, synthesis, X-ray structure, enzyme inhibition and antiviral activity” (Bioorg Med Chem Lett, 1995)

Assays:
[1] = Partition coefficient (logP); type: physicochemical; details: octanol/water
CCRF-CEM = experiment: Concentration required to produce 50 percent inhibition of HIV-1 infection in CEM cells; type: functional, cell-based; details: Homo sapiens
[2] = target: T1, Human immunodeficiency virus type 1 protease (Human immunodeficiency virus 1, UniProt Q72874); experiment: Tested for inhibition of HIV protease using fluorogenic substrate
[3] = Tested for cytotoxicity in HIV-1 infected human T-lymphocyte cell culture; type: functional; details: read-out: TC50 (the source's name)
[4] = target: T1, Human immunodeficiency virus type 1 protease; experiment: Tested for inhibition of HIV protease using fluorogenic substrate; insoluble

Row | Compound | logP ([1]; read-out: logP) | EC50 (CCRF-CEM) [nM] | Ki [2] [nM] | CC50 [3] [nM] | logP [1] | Ki [4]
1 | O=C(Nc1ccccc1C(=O)N[C@@H](Cc1ccccc1)[C@H](O)[C@H](O)[C@H](Cc1ccccc1)NC(=O)c1ccccc1NC(=O)OCc1ccccc1)OCc1ccccc1 | 8.16 | > 100000 | – | – | – | –
2 | Cc1nccnc1C(=O)Nc1ccccc1C(=O)N[C@@H](Cc1ccccc1)[C@H](O)[C@H](O)[C@H](Cc1ccccc1)NC(=O)c1ccccc1NC(=O)c1nccnc1C | 5.66 | – | > 10000 | – | – | –
3 | O=C(Nc1ccccc1C(=O)N[C@@H](Cc1ccccc1)C[C@H](O)[C@H](Cc1ccccc1)NC(=O)c1ccccc1NC(=O)OCc1ccccn1)OCc1ccccn1 | 6.61 | 56 | 0.07 | > 50000 | – | –
4 | O=C(COCc1ccccc1)Nc1ccccc1C(=O)N[C@@H](Cc1ccccc1)[C@H](O)[C@H](O)[C@H](Cc1ccccc1)NC(=O)c1ccccc1NC(=O)COCc1ccccc1 | 6.91 | – | > 10000 | – | – | –
5 | O=C(CO)Nc1ccccc1C(=O)N[C@@H](Cc1ccccc1)[C@H](O)[C@H](O)[C@H](Cc1ccccc1)NC(=O)c1ccccc1NC(=O)CO | 2.52 | 60000 | 20 | – | – | –
6 | O=C(Nc1ccccc1C(=O)N[C@@H](Cc1ccccc1)C[C@H](O)[C@H](Cc1ccccc1)NC(=O)c1ccccc1NC(=O)OCc1cccnc1)OCc1cccnc1 | 5.86 | 140 | 0.26 | – | – | –
7 | O=C(Nc1ccccc1C(=O)N[C@@H](Cc1ccccc1)C[C@H](O)[C@H](Cc1ccccc1)NC(=O)c1ccccc1NC(=O)OCc1ccncc1)OCc1ccncc1 | 5.39 | 2600 | 0.45 | – | – | –
8 | O=CNc1ccccc1C(=O)N[C@@H](Cc1ccccc1)[C@H](O)[C@H](O)[C@H](Cc1ccccc1)NC(=O)c1ccccc1NC=O | 4.89 | 900 | 1.2 | – | – | –
9 | O=C(Nc1ccccc1C(=O)N[C@@H](Cc1ccccc1)[C@H](O)[C@H](O)[C@H](Cc1ccccc1)NC(=O)c1ccccc1NC(=O)OCc1ccccn1)OCc1ccccn1 | 6.49 | 13 | – | 35000 | – | –
10 | O=C(Nc1c(Cl)cccc1C(=O)N[C@@H](Cc1ccccc1)[C@H](O)[C@H](O)[C@H](Cc1ccccc1)NC(=O)c1cccc(Cl)c1NC(=O)OCc1ccccc1)OCc1ccccc1 | – | – | – | – | 9.34 | –
11 | CC(=O)Nc1ccccc1C(=O)N[C@@H](Cc1ccccc1)[C@H](O)[C@H](O)[C@H](Cc1ccccc1)NC(=O)c1ccccc1NC(C)=O | 4.32 | > 100000 | – | – | – | –
12 | O=C(Nc1ccccc1C(=O)N[C@@H](Cc1ccccc1)C[C@H](O)[C@H](Cc1ccccc1)NC(=O)c1ccccc1NC(=O)OCc1ccccc1)OCc1ccccc1 | 8.28 | – | – | – | – | –
13 | CCOC(=O)Nc1ccccc1C(=O)N[C@@H](Cc1ccccc1)[C@H](O)[C@H](O)[C@H](Cc1ccccc1)NC(=O)c1ccccc1NC(=O)OCC | 6.14 | – | – | – | – | Insoluble
14 | O=C(Nc1ncccc1C(=O)N[C@@H](Cc1ccccc1)[C@H](O)[C@H](O)[C@H](Cc1ccccc1)NC(=O)c1cccnc1NC(=O)OCc1ccccc1)OCc1ccccc1 | 7.87 | – | – | – | – | –
15 | O=C(Nc1c(O)cccc1C(=O)N[C@@H](Cc1ccccc1)[C@H](O)[C@H](O)[C@H](Cc1ccccc1)NC(=O)c1cccc(O)c1NC(=O)OCc1ccccc1)OCc1ccccc1 | 7.96 | – | – | – | – | –
16 | Cc1cccc(C(=O)N[C@@H](Cc2ccccc2)[C@H](O)[C@H](O)[C@H](Cc2ccccc2)NC(=O)c2cccc(C)c2NC(=O)OCc2ccccc2)c1NC(=O)OCc1ccccc1 | – | – | – | – | 9.24 | –
